Laboratory results taken from US6211156A (priority 1999, dated 2001).

System: male rats
Conditions: rat, in vivo

| Compound | effect on test peptide induced penile erection | effect on penile erections induced by 2 μg of the test peptides into the PVN | also measured |
| --- | --- | --- | --- |
| C[C@]12N[C@H](Cc3ccccc31)c1ccccc12 [MK 801, dizolcipine] | did not modify the penile erection | – | – |
| CN1CC[C@]23c4c5ccc(O)c4O[C@H]2[C@@H](O)C=C[C@H]3[C@H]1C5 [morphine] | – | reduced in a dose-dependent manner | – |
| ω-conotoxin-GVIA | – | – | effect on penile erection induced by 2 μg of the test peptides into the PVN: reduced penile erection |
| OCCN1CCN(CC/C=C2/c3ccccc3Sc3ccc(C(F)(F)F)cc32)CC1 [cis-flupenthixol] | did not modify the penile erection | – | – |
| COC(=O)[C@@H](N)CCCNC(=N)N[N+](=O)[O-] [L-NAME, N^G -nitro-1-arginine methyl ester] | – | reduced in a dose dependent manner | – |
